Source: patent US20190365784A1, “USE OF BRASSINOSTEROID ANALOGS FOR THE TREATMENT OF DERMAL DISORDERS BY SELECTIVELY MODULATING LIVER X RECEPTORS (LXR) AND DERMAL DISEASE TREATMENT BY BRASSINOSTEROID ANALOGS ACTING AS SELECTIVE LIVER X RECEPTOR (LXR) MODULATORS” (CONSEJO NACIONAL DE INVESTIGACIONES CIENTÍFICAS Y TÉCNICAS …, priority 2015, published 2019)

How the values were obtained:
LXR-beta = LXR-beta expression in UV-irradiated HaCaT cells (real time PCR); type: cell-based, human; settings: 10 uM, 24 h after UV, vs. DMSO (UV, 24 h) and GW3965 (UV, 24 h)
Procedure: HaCaT cells—a human immortalized keratinocyte cell line—were exposed to 15 J/m^2 UVB (254 nm) irradiation. Twenty four hours after irradiation, the cells were harvested and RNA isolated to assess the expression of LXR-alpha, LXR-beta, ABCA1, TNF-alpha, IL-6, and IL-8 genes. HaCaT cells were cultured in DMEM supplemented with 10% (v/v) fetal bovine serum, penicillin (100 U/mL), streptomycin ([…]) and glutamine (2 mM). […] The expressions of ABCA1, TNF-alpha, IL-6, IL-8, LXR-alpha, and LXR-beta were normalized according to glyceraldehyde-3-phosphate dehydrogenase (GAPDH) expression. The results of three independent assays, carried out in duplicate for each condition, are reported.

[1] = tested on: fatty acid synthase (FAS); experiment: FAS expression in HL-60 cells (real time PCR); type: cell-based, human; settings: 10 uM, 6 h
Procedure: (§1) To investigate the effects of Compounds I and II on the expression of three genes involved in lipid metabolism [fatty acid synthase (FAS); and two ATP-dependent cholesterol and phospholipid transporters, such as ABCA1 and ABCG1], human promyelocytic leukemia cells (HL-60) that endogenously express LXR-alpha and LXR-beta were incubated in the presence of either Comp I or Comp II (10 uM), or GW3965 (1 uM) for 6 h. mRNA levels for FAS, ABCA1 and ABCG1 were determined by real time PCR and results were normalized to GAPDH expression. HL-60 (10^6 cells/well) were cultured in RPMI medium supplemented with 5% (v/v) fetal bovine serum, penicillin (100 IU/mL), streptomycin (100 ug/mL) y cyprofloxacin (0.4 ug/mL). […] To obtain RNA, at the end of the incubation the cells were collected by centrifugation at 1,000 rpm for 2 min, washed with phosphate buffered saline, and lysed in 300 ul TRIZOL (Invitrogen). RNA samples were suspended in […] of RNAse free water, and their concentration determined (NanoDrop spectrophotometer). […] To obtain cDNA, 1 ug of total RNA was denatured by incubating for 5 min at 70° C., before the addition of a mixture containing 0.5 ug oligo-dT primers and 25 ng/ml of random primers (Invitrogen), 1.0 mM dNTPs (Invitrogen), and 200 U M-MLV reverse transcriptase (Promega); after this the mixture was retrotranscribed at 37° C. for 60 min, followed by an incubation at 95° C. for 5 min to inactivate the enzyme. For the real time PCR amplification (Stratagene Thermal Cycler), cDNA samples were diluted 1/5 to 1/10 depending on the target amplification product. Calibration curves were obtained by use of eight successive 1:2 sample dilutions. Amplifications were carried out in a 25 ul final volume (5 ul cDNA sample plus 20 ul of reaction mixture) in the presence of either 3, 4 or 5 mM MgCl2 (depending on the amplified sequence), 0.25 mM dNTPs (Invitrogen), 1.25 U Taq polymerase (Invitrogen), 1 μM of the specific primers according to the target amplification sequence, and 0.025 μl SYBR Green (Roche). […]

ABCG1 = ABCG1 expression in HL-60 cells (real time PCR); type: cell-based, human; settings: 10 uM, 6 h
Procedure: as §1

[2] = tested on: fatty acid synthase (FAS or FASN); experiment: FASN expression in HepG2 cells (real time PCR); type: cell-based, human; settings: 1 uM, 3 uM and 10 uM, 6 h
Procedure: The cells were incubated for 6 h in the presence of either Compound I (10 uM), or Compound II (10 uM), or the commercial LXR agonist GW3965 (1 uM), or Vehicle [DMSO, 0.1% (v/v)]). To obtain RNA, at the end of the incubation the cells were collected by centrifugation at 1,000 rpm for 2 min, washed with phosphate buffered saline, and lysed in 300 ul TRIZOL (Invitrogen). RNA samples were suspended in ul of RNAse free water, and their concentration determined (NanoDrop spectrophotometer). The ratio of the absorbance at 260 and 280 nm was used to assess RNA purity of an RNA preparation, with a value of 1.8-2.0 indicating pure RNA. To obtain cDNA, 1 ug of total RNA was denatured by incubating for 5 min at 70° C., before the addition of a mixture containing 0.5 ug oligo-dT primers and 25 ng/ml of random primers (Invitrogen), 1.0 mM dNTPs (Invitrogen), and 200 U M-MLV reverse transcriptase (Promega); after this the mixture was retrotranscribed at 37° C. for 60 min, followed by an incubation at 95° C. for 5 min to inactivate the enzyme. For the real time PCR amplification (Stratagene Thermal Cycler), cDNA samples were diluted 1/5 to 1/10 depending on the target amplification product. Calibration curves were obtained by use of eight successive 1:2 sample dilutions. Amplifications were carried out in a 25 ul final volume (5 ul cDNA sample plus 20 ul of reaction mixture) in the presence of either 3, 4 or 5 mM MgCl2 (depending on the amplified sequence), 0.25 mM dNTPs (Invitrogen), 1.25 U Taq polymerase (Invitrogen), 1 μM of the specific primers according to the target amplification sequence, and 0.025 μl SYBR Green (Roche). Melting curves were used to assess the specificity of the amplification products. […]

LXR-alpha = biological target: T1, LXR-alpha (Homo sapiens, UniProt Q13133); experiment: LXR-alpha/RXR LRE-luciferase reporter in transfected HEK293T cells; type: cell-based; settings: 10 uM, 18 h
T1 sequence (Q13133 1-447): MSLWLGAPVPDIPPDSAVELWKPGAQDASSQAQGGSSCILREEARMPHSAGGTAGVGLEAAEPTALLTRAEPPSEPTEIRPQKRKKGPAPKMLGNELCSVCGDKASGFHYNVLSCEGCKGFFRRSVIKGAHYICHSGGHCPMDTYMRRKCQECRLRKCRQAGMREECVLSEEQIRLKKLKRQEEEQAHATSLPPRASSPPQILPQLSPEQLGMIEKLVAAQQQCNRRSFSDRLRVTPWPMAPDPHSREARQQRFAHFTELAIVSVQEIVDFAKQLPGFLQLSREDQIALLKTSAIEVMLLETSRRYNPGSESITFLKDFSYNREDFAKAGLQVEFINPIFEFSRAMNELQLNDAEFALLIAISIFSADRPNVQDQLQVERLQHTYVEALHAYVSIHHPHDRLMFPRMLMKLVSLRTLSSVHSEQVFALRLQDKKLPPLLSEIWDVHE
T1 sequence (P19793 1-462 partner): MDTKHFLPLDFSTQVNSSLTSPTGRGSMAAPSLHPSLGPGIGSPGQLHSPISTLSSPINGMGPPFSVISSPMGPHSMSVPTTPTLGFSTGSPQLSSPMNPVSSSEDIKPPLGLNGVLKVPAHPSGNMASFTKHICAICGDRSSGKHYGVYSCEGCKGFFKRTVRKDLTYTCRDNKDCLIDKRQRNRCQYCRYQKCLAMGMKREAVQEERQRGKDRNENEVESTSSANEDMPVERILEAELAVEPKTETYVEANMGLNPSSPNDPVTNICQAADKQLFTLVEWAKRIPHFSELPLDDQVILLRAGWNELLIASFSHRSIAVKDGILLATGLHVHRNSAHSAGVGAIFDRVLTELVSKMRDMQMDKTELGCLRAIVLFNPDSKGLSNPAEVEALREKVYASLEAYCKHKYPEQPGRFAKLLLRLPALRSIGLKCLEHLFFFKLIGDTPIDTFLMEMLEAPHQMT
From the text: Since we had previously shown that the beneficial effects of the compounds of the invention are independent of glucocorticoid receptor (GR) activation, we set forth to investigate if they might exert their actions through activation of liver X receptors (LXR). For this purpose we used cultured cells transiently transfected with LXR-alpha, the retinoid X receptor (RXR) and a LXR response element-luciferase reporter (LRE-LUC). A. Human embryonic kidney cells (HEK293T; 5×10^5 cells/well) were cultured in DMEM medium supplemented with 10% (v/v) fetal bovine serum, 100 ug/ml of streptomycin, 100 IU/ml of penicillin and 2 mM glutamine. For the transient transfections, the cell cultures were added with plasmids carrying LXR-alpha (pLXR-alpha; 0.6 ug), the retinoid X receptor (pRXR; 0.2 ug), a LXR response element-luciferase reporter (pRE-LUC; 0.7 ug) and beta-galactosidase gene (pRSV-LacZ; 0.6 ug) as a transfection control, using Lipofectamine 2000 (Invitrogen). […] Compounds III to VI are […] analogs bearing a fluorine atom at C-6. To assess LXR-alpha activation, at the end of the incubation period luciferase activity was measured by use of a luciferase assay system (Promega). The results of three independent assays, carried out in duplicate for each condition, are reported.

ABCA1 = ABCA1 expression in HL-60 cells (real time PCR); type: cell-based, human; settings: 10 uM, 6 h
Procedure: as §1

Row | SMILES | LXR-beta expression (LXR-beta) | FAS mRNA lower than in vehicle-treated cells [1] [%] | effect on ABCG1 expression (ABCG1) | induction of FASN expression [2] | induction of LXR-alpha driven gene expression compared with GW3965 (1 uM) (LXR-alpha) | effect on ABCA1 expression (ABCA1)
1 | CC[C@@H](C(C)C)[C@H](O)[C@@H](O)[C@@H](C)[C@H]1CC[C@H]2[C@@H]3CCC4=CC(=O)CC[C@]4(C)[C@H]3CC[C@]12C [Compound I, (22S,23S)-22,23-dihydroxystigmast-4-en-3-one] | stimulated LXR-beta expression even further | ~40 | none of the test compounds significantly affected | did not induce | within the same range as that observed for GW3965 | none of the test compounds significantly affected
2 | CC[C@@H](C(C)C)[C@H](O)[C@@H](O)[C@@H](C)[C@H]1CC[C@H]2[C@@H]3CCC4=CC(=O)C=C[C@]4(C)[C@H]3CC[C@]12C [Compound II, (22S,23S)-22,23-dihydroxystigmasta-1,4-dien-3-one] | more modest than that observed for Compound I | ~40 | none of the test compounds significantly affected | did not induce | within the same range as that observed for GW3965 | none of the test compounds significantly affected
